Measured values from patent US20090036514A1, “Therapeutic effects of Bryostatins, Bryologs, and other related substances on Ischemia/stroke-induced memory impairment and brain injury” (priority 2007, published 2009).
Where two headings read alike, the source gives them in different places.

Experiments:
PKC [1] = details: [3H]phorbol dibutyrate; read-out: Ki for binding; cited from earlier work
[2] = system: cerebral ischemia-induced memory impairment; experiment: water maze spatial learning and probe test after global ischemia (Example 2); format: in vivo, rat; details: for water maze spatial learning, ischemic with treatment vs. control rats: trained one week after last dose; for water maze spatial learning, ischemic with treatment vs. ischemic rats: treatment started 24 hours after hypoxia, bryostatin-1 20 μg/m^2 i.v. 2 doses/week 10 doses, MCDA 1.0 mg/kg i.p. daily 5 weeks
Method: Rats (male, Wistar, 200-225 g) were randomly divided into 6 groups (8 each) and housed for 1 week before experimentation. Transient or permanent restriction of cerebral blood flow and oxygen supply results in ischemic stroke. The global ischemia model used to induce vascular memory impairment was two-vessel occlusion combined with a short term systemic hypoxia. Ligation of the bilateral common carotid arteries was performed under anesthesia (pentobarbital, 60 mg/kg, i.p.). After a one-week recovery from the surgery, rats were exposed to 14-min hypoxia (5% oxygen in a glass jar). Control rats (sham operated and vehicle controls) were subjected to the same incision to isolate both common carotid arteries and to 14-min air (in the glass jar). Body temperature was kept at 37-37.5° C. using a heating light source during the surgical procedure and until the animals were fully recovered.
4-Methylcatechol-diacetic acid (MCDA, a potential NGF and BDNF booster) was administered at 1.0 mg/kg (i.p., daily for the same 5-week period) in separate groups of rats.
A visible platform test was given after the probe test.

PKC [3] = details: A-ring bryologs; read-out: affinity for PKC; cited from earlier work
[4] = system: squamous cell carcinoma and melanoma; details: used topically; cited from earlier work
PKCε = biological target: T1, PKCε (Homo sapiens, UniProt Q02156); details: cited from earlier work
T1 sequence (Q02156 1-737): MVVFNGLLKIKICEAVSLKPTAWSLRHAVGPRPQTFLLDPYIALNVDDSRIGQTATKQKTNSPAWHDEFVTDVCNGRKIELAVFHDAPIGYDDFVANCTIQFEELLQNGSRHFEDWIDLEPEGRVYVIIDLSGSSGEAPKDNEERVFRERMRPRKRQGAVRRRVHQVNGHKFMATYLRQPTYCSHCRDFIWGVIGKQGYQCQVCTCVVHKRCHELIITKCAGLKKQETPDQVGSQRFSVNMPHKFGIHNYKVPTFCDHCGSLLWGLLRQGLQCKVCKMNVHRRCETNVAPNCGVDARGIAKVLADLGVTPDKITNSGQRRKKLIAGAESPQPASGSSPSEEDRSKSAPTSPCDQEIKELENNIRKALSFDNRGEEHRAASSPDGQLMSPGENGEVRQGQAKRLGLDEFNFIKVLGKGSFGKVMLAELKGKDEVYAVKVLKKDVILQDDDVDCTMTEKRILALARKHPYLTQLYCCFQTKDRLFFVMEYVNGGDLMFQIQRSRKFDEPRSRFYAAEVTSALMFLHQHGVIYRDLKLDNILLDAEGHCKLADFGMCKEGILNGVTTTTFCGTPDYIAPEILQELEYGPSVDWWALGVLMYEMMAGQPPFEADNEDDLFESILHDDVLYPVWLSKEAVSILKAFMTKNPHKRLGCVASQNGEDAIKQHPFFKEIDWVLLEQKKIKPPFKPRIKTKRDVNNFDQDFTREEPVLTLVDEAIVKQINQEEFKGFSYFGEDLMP

NCI 60 cell line screen = details: cited from earlier work
[5] = system: murine leukemias and solid tumors; details: cited from earlier work
PKC [6] = details: K562 cells; cited from earlier work
[7] = system: cyclin dependent kinase 2 (Cdk2); details: at 5 ng/ml; cited from earlier work
[8] = system: cerebral ischemia/hypoxia-induced learning and memory impairment; experiment: water maze spatial learning and memory after global cerebral ischemia/hypoxia (Example 3); format: in vivo, rat
Method: Global cerebral ischemia/hypoxia was induced in male Wistar rats (225-250 g) by permanently occluding the bilateral common carotid arteries, combined with about 14 minutes of low oxygen (about 5%). […] Spatial learning (2 trials/ day for 4 days) and memory (a probe test of 1 minute, 24 hours after the last trial) task was performed 9 days after the last dose. Overall, there was a significant difference between the groups (F3,255=31.856, p<0.001) and groups x trials (F21,255=1.648, p<0.05). Global cerebral ischemia impaired the spatial learning (ischemial vs. sham-operated F1,127=[…]).

[9] = humans; cited from earlier work
protein kinase C = details: (−)-enantiomer; cited from earlier work
[10] = non-ischemic rats, same regimens

CC1=C[C@]23C(=O)[C@@H](C=C(COC(=O)c4ccccc4)[C@@H](O)[C@]2(O)[C@H]1OC(=O)c1ccccc1)[C@H]1[C@@H](C[C@H]3C)C1(C)C [Ingenol 3,20-dibenzoate]
Ki (PKC [1]): 240 nM

Cc1ccc(OCC(=O)O)c(OCC(=O)O)c1 [MCDA, 4-Methylcatechol-diacetic acid]
target quadrant ratio in probe test, compound-only vs. control rats [2, 10]: no differences
water maze spatial learning, compound-only vs. control rats [2, 10]: no differences
target quadrant ratio in probe test, ischemic with treatment vs. control rats ([2]; same regimens): no differences
target quadrant ratio in probe test, ischemic with treatment vs. ischemic rats ([2]; same regimens): group differences
water maze spatial learning, ischemic with treatment vs. control rats ([2]; same regimens): remained significant
water maze spatial learning, ischemic with treatment vs. ischemic rats [2]: improved the learning of the ischemic rats

CCCCCCCC(=O)OC1C(=CC(=O)OC)CC2CC(CO)OC(=O)CC(O)CCOC(C(C)(C)C)CC3CCOC(C=CC(C)(C)C1(O)O2)O3 (stereo not shown) [bryolog 3]
Ki (PKC [3]): 6.5 nM

CCCCCCCC(=O)OC1C(=CC(=O)OC)CC2CC(CO)OC(=O)CC(O)CCOC(CCCc3ccc(Br)cc3)CC3CCOC(C=CC(C)(C)C1(O)O2)O3 (stereo not shown) [bryolog 5]
Ki (PKC [3]): 1.9 nM

C/C=C(/C)C(=O)O[C@H]1C(C)=C[C@]23C(=O)[C@@H](C=C(CO)[C@@H](O)[C@]12O)[C@H]1[C@@H](C[C@H]3C)C1(C)C [Ingenol-3-angelate]
antitumor activity [4]: possesses antitumor activity

CCCCCC1CC1CC1CC1CCCCCCCC(=O)O (stereo not shown) [DCP-LA, 2-[(2-pentylcyclopropyl)methyl] cyclopropaneoctanoic acid]
concentration of maximal effect on PKCε activation (PKCε): 100 nM

CC1=CC[C@H](C)C(C)(C)[C@@H]1/C=C/C(C)=C/CC[C@@]1(CO)[C@H](CCCO)/C(=C(/C)C=O)CC[C@]1(C)O [Iripallidal]
GI50 (concentration required to inhibit growth by 50%) (NCI 60 cell line screen): from micromolar to nanomolar range

C=C(C)C12C[C@@H](COC(=O)c3ccccc3)[C@@]34OC5(O[C@@H]1[C@@H]3C1O[C@]1(CO)[C@@H](O)[C@@]1(O)[C@H]4[C@@H](C(C)CCCCCC[C@H]5O)C(C)[C@@H]1OC(=O)c1ccccc1)O2 (stereo partly shown) [Gnidimacrin]
concentrations with potent antitumor activity [5]: 0.1 to 1 nM
concentration acting as PKC activator (PKC [6]): ≈ 3 nM
inhibition of Cdk2 [7]: 100%

CCCCCCCC(=O)OC1C(=CC(=O)OC)CC2CC(CO)OC(=O)CC(O)CCOC(c3ccccc3)CC3CCOC(C=CC(C)(C)C1(O)O2)O3 (stereo not shown) [bryolog 4]
Ki (PKC [3]): 2.3 nM

CCCC=CC=CC(=O)OC1C(=CC(=O)OC)CC2CC(C(C)O)OC(=O)CC(O)CC3CC(OC(C)=O)C(C)(C)C(O)(CC4CC(=CC(=O)OC)CC(C=CC(C)(C)C1(O)O2)O4)O3 (stereo not shown) [Bryostatin 1, bryostatin-1]
water maze spatial learning, compound-only vs. control rats [2, 10]: no differences
water maze spatial learning, ischemic with treatment vs. control rats ([2]; same regimens): did not differ statistically from the control rats
water maze spatial learning, ischemic with treatment vs. ischemic rats [2]: greatly improved the performance
target quadrant preference, Bryostatin-1 alone vs. sham-operated ([8]; 15 μg/m^2): no significant effects
spatial learning, Bryostatin-1 alone vs. sham-operated ([8]; 15 μg/m^2, 9 days after the last dose): did not affect the learning
memory retention test after ischemia ([8]; 15 μg/m^2, probe test 24 hours after last trial): effectively restored memory retention after ischemia to the level of the sham-operated rats
spatial learning impairment, Bryostatin-1+Ischemia vs. Ischemia ([8]; 15 μg/m^2 tail vein, 2 doses/week, 10 doses, from about 24 hours after ischemia, tested 9 days after last dose): restored
main adverse reaction [9]: myalgia

CCCCCCCCc1ccc2c3c(c[nH]c13)C[C@@H](CO)NC(=O)[C@H](C(C)C)N2C [Octylindolactam V]
EC50 (protein kinase C): 29 nM
